Assays:
[1] = Absorbance and fluorescence emission spectra (SpectraMax M2); assay type: physicochemical; details: for λmax Absorp. (nm) / λmax Emission (nm): MKCA compound library; for λmax Absorp. (nm): absorbance maximum; for λmax Emission (nm): fluorescence emission maximum
Method in brief: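 Spectroscopic data, including quantum yields, were recorded with a SpectraMax M2 instrument and analysed in GraphPrism.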

[2] = Quantum yield measurements versus Acridine Yellow in EtOH; assay type: physicochemical; details: for φ (%): MKCA compound library, quantum yield; for φ (quantum yield): excitation 460 nm
Method in brief: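 Emission areas integrated over 510–700 nm were compared with Acridine Yellow in ethanol (Φ=0.47), all excited at 460 nm. The comparative equation was normalized to excitation-wavelength absorbance and solvent refractive index.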

[3] = test system: mixed primary neural cell populations; test: Flow cytometry analysis and FACS sorting of mixed primary neural cells; assay type: cell-based, mouse
Description: Unstained controls are shown in each spectrum from about 0 to about 1 G.
To further analyze this population of compound positive cells, the two populations (Bright and Dim) were sorted out cell re-culture and RNA extraction for gene analysis.

## CCCC(C)c1cn(-c2ccc3n2[B-](F)(F)[N+]2=C(NCc4ccccc4C)C=CC2=C3c2ccc(NC(=O)CCl)cc2)nn1 (stereo not shown) [MKCA101-3]
[1]
  λmax Absorp. (nm): 464 nm
  λmax Emission (nm): 563 nm
[2]
  φ (%): 31.22%
[3]
  flow cytometry profile of stained mixed neural cell populations: neuronal population segregating from the main population

## Cc1ccccc1CNC1=[N+]2C(=C(c3ccc(N)cc3)c3ccc(-n4cc(CN(C)Cc5ccccc5)nn4)n3[B-]2(F)F)C=C1 [MK101-18]
[1]; MK library, Table 5
  λmax Absorp.: 474 nm
  λmax Emission: 563 nm
[2]; MK library, Table 5
  φ (quantum yield): 0.179%

## CC(=O)Nc1ccc(C2=C3C=CC(N4CCCCC4)=[N+]3[B-](F)(F)n3c2ccc3-n2cc(CC(C)C)nn2)cc1 [BDCAC-43]
[1]; BDCAC library, Table 3
  λmax Absorp.: 467 nm
  λmax Emission: 581 nm
[2]; BDCAC library, Table 3
  φ (quantum yield): 0.8%

## CCCCCC(O)c1cn(-c2ccc3n2[B-](F)(F)[N+]2=C(N4CC(C)OC(C)C4)C=CC2=C3c2ccc(N)cc2)nn1 (stereo not shown) [MK20-69]
[1]; MK library, Table 5
  λmax Absorp.: 480 nm
  λmax Emission: 586 nm
[2]; MK library, Table 5
  φ (quantum yield): 0.16%

## Nc1ccc(C2=C3C=CC(N4CCCCC4)=[N+]3[B-](F)(F)n3c2ccc3-n2cc(COc3ccccc3)nn2)cc1 [BDC-17]
[1]; BDC library, Table 2
  λmax Absorp.: 474 nm
  λmax Emission: 591 nm
[2]; BDC library, Table 2
  φ (quantum yield): 0.11%

## CC1CN(C2=[N+]3C(=C(c4ccc(N)cc4)c4ccc(-n5cc(CO)nn5)n4[B-]3(F)F)C=C2)CC(C)O1 (stereo not shown) [MK20-70]
[1]; MK library, Table 5
  λmax Absorp.: 479 nm
  λmax Emission: 584 nm
[2]; MK library, Table 5
  φ (quantum yield): 0.18%

## CN(Cc1ccccc1)Cc1cn(-c2ccc3n2[B-](F)(F)[N+]2=C(NCc4cc(F)cc(F)c4)C=CC2=C3c2ccc(N)cc2)nn1 [MK412-18]
[1]; MK library, Table 5
  λmax Absorp.: 473 nm
  λmax Emission: 563 nm
[2]; MK library, Table 5
  φ (quantum yield): 1.02%

## Nc1ccc(C2=C3C=CC(N4CCCCC4)=[N+]3[B-](F)(F)n3c2ccc3-n2cc(-c3ccc(OC(F)(F)F)cc3)nn2)cc1 [BDC-15]
[1]; BDC library, Table 2
  λmax Absorp.: 469 nm
  λmax Emission: 549 nm
[2]; BDC library, Table 2
  φ (quantum yield): 0.19%

## Nc1ccc(C2=C3C=CC(N4CCCCC4)=[N+]3[B-](F)(F)n3c2ccc3-n2cc(-c3ccc(F)cc3F)nn2)cc1 [BDC-26]
[1]; BDC library, Table 2
  λmax Absorp.: 473 nm
  λmax Emission: 585 nm
[2]; BDC library, Table 2
  φ (quantum yield): 0.12%

## CCCCc1ccc(-c2cn(-c3ccc4n3[B-](F)(F)[N+]3=C(N5CCCCC5)C=CC3=C4c3ccc(N)cc3)nn2)cc1 [BDC-12]
[1]; BDC library, Table 2
  λmax Absorp.: 473 nm
  λmax Emission: 594 nm
[2]; BDC library, Table 2
  φ (quantum yield): 0.09%

## CC(C)(C)c1ccc(-c2cn(-c3ccc4n3[B-](F)(F)[N+]3=C(N5CCCCC5)C=CC3=C4c3ccc(NC(=O)CCl)cc3)nn2)cc1 [BDCCA-11]
[1]; BDCCA library, Table 4
  λmax Absorp.: 464 nm
  λmax Emission: 587 nm
[2]; BDCCA library, Table 4
  φ (quantum yield): 1.3%

## CC(=O)Nc1ccc(C2=C3C=CC(N4CCCCC4)=[N+]3[B-](F)(F)n3c2ccc3-n2cc(-c3ccccc3)nn2)cc1 [BDCAC-9]
[1]; BDCAC library, Table 3
  λmax Absorp.: 465 nm
  λmax Emission: 579 nm
[2]; BDCAC library, Table 3
  φ (quantum yield): 1.1%

## CC1CN(C2=[N+]3C(=C(c4ccc(NC(=O)CCl)cc4)c4ccc(-n5cc(C6CCCC6)nn5)n4[B-]3(F)F)C=C2)CC(C)O1 (stereo not shown) [MKCA20-5]
[1]
  λmax Absorp. (nm): 468 nm
  λmax Emission (nm): 581 nm
[2]
  φ (%): 4.60%

## CCCC(C)c1cn(-c2ccc3n2[B-](F)(F)[N+]2=C(N4CCc5ccccc5C4)C=CC2=C3c2ccc(NC(=O)CCl)cc2)nn1 (stereo not shown) [MKCA66-3]
[1]
  λmax Absorp. (nm): 469 nm
  λmax Emission (nm): 582 nm
[2]
  φ (%): 3.50%

## O=C(CCl)Nc1ccc(C2=C3C=CC(N4CCc5ccccc5C4)=[N+]3[B-](F)(F)n3c2ccc3-n2cc(C3CC3)nn2)cc1 [MKCA66-4]
[1]
  λmax Absorp. (nm): 469 nm
  λmax Emission (nm): 587 nm
[2]
  φ (%): 3.33%

## O=C(CCl)Nc1ccc(C2=C3C=CC(N4CCCCC4)=[N+]3[B-](F)(F)n3c2ccc3-n2cc(-c3ccc(F)cc3F)nn2)cc1 [BDCCA-26]
[1]; BDCCA library, Table 4
  λmax Absorp.: 465 nm
  λmax Emission: 568 nm
[2]; BDCCA library, Table 4
  φ (quantum yield): 1.3%

## CCCCc1cn(-c2ccc3n2[B-](F)(F)[N+]2=C(N4CCCCC4)C=CC2=C3c2ccc(N)cc2)nn1 [BDC-42]
[1]; BDC library, Table 2
  λmax Absorp.: 473 nm
  λmax Emission: 584 nm
[2]; BDC library, Table 2
  φ (quantum yield): 0.19%

## CC(=O)Nc1ccc(C2=C3C=CC(N4CCCCC4)=[N+]3[B-](F)(F)n3c2ccc3-n2cc(-c3ccc(OC(F)(F)F)cc3)nn2)cc1 [BDCAC-15]
[1]; BDCAC library, Table 3
  λmax Absorp.: 463 nm
  λmax Emission: 537 nm
[2]; BDCAC library, Table 3
  φ (quantum yield): 2.7%

## CCOc1ccccc1CNC1=[N+]2C(=C(c3ccc(N)cc3)c3ccc(-n4cc(CN(C)Cc5ccccc5)nn4)n3[B-]2(F)F)C=C1 [MK103-18]
[1]; MK library, Table 5
  λmax Absorp.: 473 nm
  λmax Emission: 565 nm
[2]; MK library, Table 5
  φ (quantum yield): 1.19%

## CN(Cc1ccccc1)C1=[N+]2C(=C(c3ccc(N)cc3)c3ccc(-n4cc(CCc5ccccc5)nn4)n3[B-]2(F)F)C=C1 [MK195-19]
[1]; MK library, Table 5
  λmax Absorp.: 477 nm
  λmax Emission: 582 nm
[2]; MK library, Table 5
  φ (quantum yield): 0.27%
